Here are results for 33 compounds from patent US12459921B2, “Isoindoline compound, preparation method, pharmaceutical composition and use thereof” (SHANGHAI INSTITUTE OF MATERIA MEDICA, CHINESE ACADEMY OF …, priority 2018, dated 2025).

pIC50: −log10 of the molar value.

The subject of this assay is MM.1S cells. In words: Inhibitory effect on the proliferation of MM.1S, MTS cell viability test. The format is cell-based. Conditions: Homo sapiens, MM1.S, 168 h, multiple myeloma MM.1S cells, 7 days incubation, read-out: Tumor cell inhibitory activity. The method, boiled down:
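Viability measured by MTS (OD490 minus OD690 background, 3-4 h) after a 7-day exposure of 20,000 MM.1S cells/well to 5-fold serially diluted compound, 0.2% DMSO final. Inhibition calculated relative to DMSO wells; IC50 curve-fitted, averaged over three repeats.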
Background: Tetrazolium dyes change colour on reduction, which living cells bring about.
With `O=C1CCC(N2Cc3c(CCCCCN4CCN(c5ccc(Cl)cc5Cl)CC4)cccc3C2=O)C(=O)N1` (stereo not drawn) [Example 236, 3-(4-(5-(4-(2,4-dichlorophenyl)piperazine-1-yl)pentyl)-1-oxoisoindoline-2-yl)piperidine-2,6-dione], the pIC50 is 4.70 to 6.00. For the compound `Cc1ccc(NC(=O)NCCCCOc2cccc3c2CN(C2CCC(=O)NC2=O)C3=O)cc1Cl` (stereo not drawn) [Example 162, 1-(3-chloro-4-methylphenyl)-3-(4-((2-(2,6-dioxopiperidine-3-)-1-oxoisoindoline-4-)oxy)butyl)urea], the pIC50 is above 7.00.

Take `O=C1CCC(N2Cc3c(CCCCN4CCC5(CC4)OCc4ccc(Cl)cc45)cccc3C2=O)C(=O)N1` (stereo not drawn) [Example 151, 3-(4-(4-(6-chloro-3H-spiro[isobenzofuran-1,4-piperidine]-1-)butyl)-1-oxoisoindoline-2-)piperidine-2,6-dione]: the pIC50 is 6.00 to 7.00. Next, `O=C1CCC(N2Cc3c(CCCCCN4CCCc5ccccc54)cccc3C2=O)C(=O)N1` (stereo not drawn) [Example 103, 3-(4-(5-(3,4-dihydroquinoline-1(2H))pentyl)-1-oxoisoindoline-2-)piperidine-2,6-dione]: 6.00 to 7.00. For `N#CC1(c2ccc(OC(F)(F)F)cc2Cl)CCN(CCCCCc2cccc3c2CN(C2CCC(=O)NC2=O)C3=O)CC1` (stereo not drawn) [Example 258, 4-(2-chloro-4-(trifluoromethoxy)phenyl)-1-(5-(2-(2,6-dioxopiperidin-3-yl)-1-oxoisoindolin-4-yl)pentyl)piperidine-4-carbonitrile], the pIC50 is 6.00 to 7.00. Turning to `O=C1CCC(N2Cc3c(CCCCN4CCC(c5noc6cc(F)ccc56)CC4)cccc3C2=O)C(=O)N1` (stereo not drawn) [Example 227, 3-(4-(4-(4-(6-fluorobenzisoxazole-3-yl)piperidin-1-yl)butyl)-1-oxoisoindoline-2-yl)piperidine-2,6-dione], the pIC50 was 4.70 to 6.00. Turning to `O=C1CCC(N2Cc3c(OCCCCN4CCC(c5noc6cc(F)ccc56)CC4)cccc3C2=O)C(=O)N1` (stereo not drawn) [Example 241, 3-(4-(4-(4-(6-fluorobenzisoxazole-3-yl)piperidin-1-yl)butoxy)-1-oxoisoindoline-2-yl) piperidine-2,6-dione], the pIC50 was 4.70 to 6.00. As to `N[C@@H](CCCc1cccc2c1CN(C1CCC(=O)NC1=O)C2=O)c1nc2ccncc2[nH]1` (stereo partly drawn) [Example 201, 3-(4-((S)-4-amino-4-(3H-imidazole[4,5-c]pyridine-2-)butyl)-1-oxoindoline-2-)piperidine-2,6-dione], the pIC50 was below 4.70.

As to `Cc1ccc2c(c1)C1(CCN(CCCCCc3cccc4c3CN(C3CCC(=O)NC3=O)C4=O)CC1)OC2` (stereo not drawn) [Example 157, 3-(4-(5-(6-methyl-3H-spiro[isobenzofuran-1,4′-piperidine]-1-)pentyl)-1-oxoisoindoline-2-)piperidine-2,6-dione], the pIC50 is above 7.00. As for `O=C1CCC(N2Cc3c(OCCCCOc4ccnc5ccccc45)cc(F)cc3C2=O)C(=O)N1` (stereo not drawn) [Example 211, 3-(6-fluoro-1-oxy-4-(4-(quinoline-4-oxy)butoxy)-1-oxoisoindoline-2-)piperidine-2,6-dione], the pIC50 was above 7.00. On to `N#Cc1ccc(N2CCN(CCCCc3cccc4c3CN(C3CCC(=O)NC3=O)C4=O)CC2)cc1` (stereo not drawn) [Example 36, 4-(4-(4-(2-(2,6-dioxopiperidine-3-)-1-oxoisoindoline-4-)butyl)piperazine-1-)benzonitrile], for which the pIC50 was above 7.00. As for `CCc1cc(OCCCCOc2cccc3c2CN(C2CCC(=O)NC2=O)C3=O)c2ccccc2n1` (stereo not drawn) [Example 10, 3-(4-(4-((2-ethylquinoline-4-)oxy)butoxy)-1-oxoisoindoline-2-)piperidine-2,6-dione], the pIC50 is above 7.00. Turning to `O=C1CCC(N2Cc3c(OCCCN4CCN(c5cccc(Cl)c5Cl)CC4)cccc3C2=O)C(=O)N1` (stereo not drawn) [Example 238, 3-(4-(3-(4-(2,3-dichlorophenyl)piperazine-1-yl)propoxy)-1-oxoisoindoline-2-yl)piperidine-2,6-dione], the pIC50 was 6.00 to 7.00. `COc1ccc(OC)c(C2(C#N)CCN(CCCCc3cccc4c3CN(C3CCC(=O)NC3=O)C4=O)CC2)c1` (stereo not drawn) [Example 246, 4-(2,5-dimethoxyphenyl)-1-(4-(2-(2,6-dioxopiperidine-3-yl)-1-oxoisoindoline-4-yl)butyl)piperidine-4-carbonitrile]: the pIC50 is 6.00 to 7.00. The figure for `O=C1CCC(N2Cc3c(CCCCN4CCN(c5cc(Cl)ccc5Cl)CC4)cccc3C2=O)C(=O)N1` (stereo not drawn) [Example 229, 3-(4-(4-(4-(2,5-dichlorophenyl)piperazine-1-yl)butyl)-1-oxoisoindoline-2-yl) piperidine-2,6-dione] is 6.00 to 7.00; for `O=C1CCC(N2Cc3c(CCCCCN4CCCC4c4ccccc4)cccc3C2=O)C(=O)N1` (stereo not drawn) [Example 17, 3-(1-oxo-4-(5-(2-phenylpyrroline-1-)pentyl)indoline-2-)piperidine-2,6-dione] it is above 7.00; for `O=C1CCC(N2Cc3c(CCCCCN4CCN(c5cccc6ccsc56)CC4)cccc3C2=O)C(=O)N1` (stereo not drawn) [Example 225, 3-(4-(5-(4-(benzothiophene-7-yl)piperazin-1-yl)pentyl)-1-oxoisoindoline-2-yl)piperidine-2,6-dione] it is 4.70 to 6.00. Take `CCC(=O)N[C@@H](CCCc1cccc2c1CN(C1CCC(=O)NC1=O)C2=O)C(=O)NCc1ccccc1` (stereo partly drawn) [Example 206, (2S)—N-benzyl-5-(2-(2,6-dioxopiperidine-3-)-1-oxoisoindoline-4-)-2-propionamidopentaneamide]: the pIC50 is above 7.00. The figure for `O=C1CCC(N2Cc3c(CCCCN4CCN(c5ccccc5Cl)CC4)cccc3C2=O)C(=O)N1` (stereo not drawn) [Example 215, 3-(4-(4-(4-(2-chlorophenyl)piperazine-1-yl)butyl)-1-oxoisoindoline-2-yl) piperidine-2,6-dione] is above 7.00; for `CC(=O)N[C@@H](CCCc1cccc2c1CN(C1CCC(=O)NC1=O)C2=O)C(=O)N[C@@H](C)c1ccccc1` (stereo partly drawn) [Example 171, (2S)-2-acetylamino-5-(2-(2,6-dioxopiperidine-3-)-1-oxoisoindoline-4-)-N—((S)-1-phenethyl)pentanamide] it is 4.70 to 6.00. Turning to `COc1ccc(C2(C#N)CCN(CCCCCc3cccc4c3CN(C3CCC(=O)NC3=O)C4=O)CC2)cc1OC` (stereo not drawn) [Example 249, 4-(3,4-dimethoxyphenyl)-1-(5-(2-(2,6-dioxopiperidine-3-yl)-1-oxoisoindoline-4-yl)pentyl)piperidine-4-carbonitrile], the pIC50 is 6.00 to 7.00. Regarding `N#CC1(c2ccc(Cl)cc2Cl)CCN(CCCCc2cccc3c2CN(C2CCC(=O)NC2=O)C3=O)CC1` (stereo not drawn) [Example 101, 4-(2,4-chlorophenyl)-1-(4-(2-(2,6-dioxopiperidine-3-)-1-oxoisoindoline-4-)butyl)piperidine-4-carbonitrile], the pIC50 was above 7.00.

In the case of `Cc1ccc(NC(=O)NCCOc2cccc3c2CN(C2CCC(=O)NC2=O)C3=O)cc1Cl` (stereo not drawn) [Example 160, 1-(3-chloro-4-methylphenyl)-3-(2-((2-(2,6-dioxopiperidine-3-)-1-oxoisoindoline-4-)oxy)ethyl)ure], the pIC50 is above 7.00. With `O=C1CCC(N2Cc3c(CCCCCCN4CCN(c5cccc(Cl)c5Cl)CC4)cccc3C2=O)C(=O)N1` (stereo not drawn) [Example 35, 3-(4-(6-(4-(2,3-dichlorophenyl)piperazine-1-)hexyl)-1-oxoisoindoline-2-)piperidine-2,6-dione], the pIC50 was above 7.00. On to `O=C1CCC(N2Cc3c(CCCCN4CCN(c5ccc(C(F)(F)F)cc5)CC4)cccc3C2=O)C(=O)N1` (stereo not drawn) [Example 45, 3-(1-oxo-4-(4-(4-(4-trifluoromethylphenyl)piperazine-1-)butyl)isoindoline-2-)piperidine-2,6-dione], for which the pIC50 was above 7.00. The figure for `O=C1CCC(N2Cc3c(OCCCCCCN4CCC5(CC4)OCc4ccc(Cl)cc45)cccc3C2=O)C(=O)N1` (stereo not drawn) [Example 150, 3-(4-((6-(6-chloro-3H-spiro[isobenzofuran-1,4′-piperidine]-1′-)hexyl)oxy)-1-oxoisoindoline-2-)piperidine-2,6-dione] is above 7.00.

As for `N#CC1(c2ccc(Cl)cc2)CCN(CCCOc2cccc3c2CN(C2CCC(=O)NC2=O)C3=O)CC1` (stereo not drawn) [Example 59, 4-(4-chlorophenyl)-1-(3-((2-(2,6-dioxopiperidine-3-)-1-oxoisoindoline-4-)oxy)propyl)piperidine-4-carbonitrile], the pIC50 was above 7.00. On to `Cc1cc(C)c(C2(C#N)CCN(CCCCCc3cccc4c3CN(C3CCC(=O)NC3=O)C4=O)CC2)c(C)c1` (stereo not drawn) [Example 262, 1-(5-(2-(2,6-dioxopiperidin-3-yl)-1-oxoisoindolin-4-yl)pentyl)-4-sym-trimethylphenylpiperidine-4-carbonitrile], for which the pIC50 is 4.70 to 6.00. With `O=C1CCC(N2Cc3c(OCCCCOc4ccnc5ccccc45)cccc3C2=O)C(=O)N1` (stereo not drawn) [Example 6, 3-(1-oxo-4-(4-(quinoline-4-oxy)butoxy)isoindoline-2-)piperidine-2,6-dione], the pIC50 was above 7.00. For the compound `O=C1CCC(N2Cc3c(CCCCCN4CCC5(CC4)C(=O)Nc4ccc(F)cc45)cccc3C2=O)C(=O)N1` (stereo not drawn) [Example 278], the pIC50 was 6.00 to 7.00. `N#CC1(c2ccc(Cl)cc2)CCN(CCCCCCc2cccc3c2CN(C2CCC(=O)NC2=O)C3=O)CC1` (stereo not drawn) [Example 102, 4-(4-chlorophenyl)-1-(6-(2-(2,6-dioxopiperidine-3-)-1-oxoisoindoline-4-)hexyl)piperidine-4-carbonitrile]: the pIC50 is above 7.00. `O=C1CCC(N2Cc3c(CCCCN4CCC5(CC4)OCc4ccccc45)cccc3C2=O)C(=O)N1` (stereo not drawn) [Example 149, 3-(4-(4-(3H-spiro[isobenzofuran-1,4′-piperidine]-1′-)butyl)-1-oxoisoindoline-2-)piperidine-2,6-dione]: the pIC50 was 6.00 to 7.00.

As for `C[C@]1(N2C(=O)c3cccc(OCCCN4CCC(C#N)(c5cccc(Cl)c5)CC4)c3C2=O)CCC(=O)NC1=O` [Example 54, (S)-4-(3-chlorophenyl)-1-(3-((2-(3-methyl-2,6-dioxopiperidine-3-)-1,3-dioxoisoindoline-4-)oxy)propyl)piperidine-4-carbonitrile], the pIC50 was 4.70 to 6.00.
